Read-outs that look alike come from different tables or passages of the source.
Test system: plated rat hepatocytes
Assay: In vitro uptake kinetics of gadoxetate in plated rat hepatocytes (mechanistic hepatocyte model)
Format: in vitro ADME
Settings: for % passive: CLpassive,u/(CLactive,u + CLpassive,u); for CLactive,u: Vmax/Km,u; for Km: read-out: Km,u
Description: Male adult Sprague-Dawley rats (Charles River, Margate, Kent, UK) were housed in groups of two in individually ventilated cages with free access to food (Chow rat and mouse diet) and fresh drinking water. The designated rat housing facility maintained a controlled temperature (20 ± 3 °C), humidity (40–70%), and 12 h light/dark cycle conditions. All animal protocols were approved by the University of Manchester review committee and adhered to the UK Home Office Animals (Scientific Procedures) Act (1986). Rats (250–300 g) were sacrificed using CO2 overdose followed by cervical dislocation in the morning of the study day. The kinetics experiment, as described below, was performed using n = 4 animals. A minimum of n = 3 was required to explore interanimal variability in kinetic parameters, with surplus hepatocytes also used from an additional animal that was part of a separate project. Primary rat hepatocytes, prepared as described below, were used to evaluate test compound cytotoxicity/effect on hepatocyte attachment (n = 3), preliminary assays to determine uptake assay conditions (n = 4), and for assays that were failed, for example, poor cell viability (n = 6 animals).
Isolation of hepatocytes using ex vivo collagenase perfusion was performed, followed by cell count and viability assessment, as previously described.[34]−[36] Cell preparations with viability <85% were not used for experiments. Hepatocytes were seeded at 240,000 cells per well in collagen I-coated 24-well plates, and incubated for at least 2 h at 37 °C and 95% air/5% CO2 to allow cell attachment to the plate.[36]
Uptake experiments were performed at 37 °C with duplicate incubations per condition, as previously described.[35] Uptake of gadoxetate (Primovist injection solution, Bayer, Germany) was evaluated following incubation (0.5–150 min) at nominal media concentrations of 0.01–10 mM. Extended incubation timepoints (up to 150 min) were selected based on previous publications[35] and existing in-house data to enable characterization of the steady-state intracellular concentration. Uptake of pitavastatin (Sequoia Research Products Ltd, Pangbourne, UK) (0.2 μM) in the absence and presence of a pan-inhibitor of uptake transporters, rifamycin SV (Sigma-Aldrich, Poole, UK) (100 μM), was also evaluated for 0.5–2 min as positive control for functional transporter activity. Following sample preparation including addition of internal standard (Table S1), gadoxetate and pitavastatin in cell samples, and gadoxetate in media samples, were quantified by liquid chromatography–tandem mass spectrometry (LC–MS/MS). LC–MS/MS quantification was performed using selective reaction monitoring (SRM) against calibration standards; only standards within 30% of nominal concentration were included. The protein content of plated rat hepatocytes was measured using the Pierce BCA Protein Assay Kit (Thermo Fisher Scientific, Paisley, UK).
In vitro hepatocyte uptake (i.e., the amount of gadoxetate in cell as quantified by LC–MS/MS) (pmol) at each time point was normalized for cellularity using the measured protein content and assuming that 10^6 hepatocytes contain 1 mg protein.[34] For gadoxetate, the data from each animal were used for simultaneous estimation of in vitro kinetic parameters using a mechanistic hepatocyte model reported previously.[35] It should be noted that CLpassive,u implies nonsaturable clearance equal in both directions under experimental conditions (0.01–10 mM). [drawing 1] 1 where Km,u represents the unbound Michaelis constant (μM); Vmax the maximum transport rate (pmol/min/10^6 cells); and fu,cell the fraction unbound in cell and nonsaturable, bidirectional clearance (CLpassive,u; μL/min/10^6 cells). ccell and cmedium represent concentrations in cell and medium compartments, respectively, and Vcell represents the cell volume.
Intracellular concentrations were calculated assuming a hepatocyte cell volume of 3.9 μL/10^6 cells.[35] […]

maximum % active (CLactive,u/(CLactive,u + CLpassive,u), animal 1): 97%
maximum % active (CLactive,u/(CLactive,u + CLpassive,u), animal 2): 94%
maximum % active (CLactive,u/(CLactive,u + CLpassive,u), animal 3): 91%
maximum % active (CLactive,u/(CLactive,u + CLpassive,u), animal 4): 94%
% passive (animal 1): 3%
% passive (animal 2): 6%
% passive (animal 3): 9%
% passive (animal 4): 6%
% passive (average of n = 4 animals): 6%
CLactive,u (animal 1): 3.07 μL/min/10^6 cells
CLactive,u (animal 2): 3.20 μL/min/10^6 cells
CLactive,u (animal 3): 2.78 μL/min/10^6 cells
CLactive,u (animal 4): 3.20 μL/min/10^6 cells
CLactive,u (average of n = 4 animals): 3.06 μL/min/10^6 cells
CLpassive,u (animal 1): 0.091 μL/min/10^6 cells
Km (animal 1): 114 µM
CLpassive,u (animal 2): 0.202 μL/min/10^6 cells
Km (animal 2): 116 µM
CLpassive,u (animal 3): 0.274 μL/min/10^6 cells
Km (animal 3): 79.8 µM
CLpassive,u (animal 4): 0.203 μL/min/10^6 cells
Km (animal 4): 115 µM
CLpassive,u (average of n = 4 animals): 0.193 μL/min/10^6 cells
Km (average of n = 4 animals (CV %)): 106 µM
maximum % active (contribution of active saturable uptake to total uptake, average of n = 4 animals): 94%
fu,liv,cell (fraction unbound in cell (fu,cell), average of n = 4 animals (CV %)): 0.648
fu,liv,cell (fraction unbound in cell (fu,cell), average of n = 4 animals (CV %), listed as Gadoxetate): 0.65 (24%)
fu,liv,cell (fraction unbound in cell, animal 1): 0.759
fu,liv,cell (fraction unbound in cell, animal 2): 0.709
fu,liv,cell (fraction unbound in cell, animal 3): 0.418
fu,liv,cell (fraction unbound in cell, animal 4): 0.704
SMILES: CCOc1ccc(C[C@@H](CN(CCN(CC(=O)[O-])CC(=O)[O-])CC(=O)[O-])N(CC(=O)[O-])CC(=O)[O-])cc1.[Gd+3].[H+].[H+] [gadoxetate]
Vmax (animal 1): 350.4 pmol/min/10^6 cells
Vmax (animal 2): 370.9 pmol/min/10^6 cells
Vmax (animal 3): 221.7 pmol/min/10^6 cells
Vmax (animal 4): 368.8 pmol/min/10^6 cells
Vmax (average of n = 4 animals): 327.95 pmol/min/10^6 cells

From publication PMC8397403, “Physiologically Based Pharmacokinetic Modeling of Transporter-Mediated Hepatic Disposition of Imaging Biomarker Gadoxetate in Rats” (Molecular Pharmaceutics, 2021)
